This note sets out measurements from patent US20220090021A1, “IN VITRO HUMAN BLOOD BRAIN BARRIER” (Massachusetts Institute of Technology, priority 2019, published 2022).

The test system of data set [1] is APOE. Description: APOE gene expression in iPSC-derived pericytes after two weeks of CaN inhibition (qRT-PCR). The data set is classed as cell-based, human. As for the experimental part:
Total RNA was isolated using Trizol and zymogen RNA-direct spin column treated with DNAse on column of 30 minutes prior to washing and elution. For RT-PCRs, 500 ng of total RNA was reverse transcribed into cDNA with iScript (BioRad). Expression was quantified by SsoFast EvaGreen supermix (BioRad). For RNAsequencing, extracted total RNA was subject to QC using an Advanced Analytical-fragment Analyzer before library preparation using Illumina Neoprep stranded RNA-seq library preparation kit. Libraries were pooled for sequencing using Illumina HiSeq2000 or NextSeq500 platforms at the MIT Biomicro Center. The raw fastq data were aligned to human hg19 assembly using STAR 2.4.0 RNA-seq aligner. Mapped RNA-seq reads covering the edited APOE3/4 site were used to validate data genotypes. Gene raw counts were generated from the mapped data using feature Counts tool. The mapped reads were also processed by Cufflinks2.2 with hg19 reference gene annotation to estimate transcript abundances. Gene differential expression test between APOE3 and APOE4 groups of each cell type was performed using Cuffdiff module with adjusted q-value <0.05 for statistical significance. Geometric method was chosen as the library normalization method for Cuffdiff. Color-coded scatterplots were used to visualize group FPKM values for differentially expressed genes and other genes.
(In general: Quantitative PCR measures a nucleic acid by following its amplification.)

Data set [2] relates to E3/3 iBBB. In words: Amyloid accumulation in E3/3 iBBB exposed to conditioned media from inhibitor-treated E4/4 pericytes. It is filed as cell-based, human. Conditions: media harvested from inhibitor-treated E4/4 pericytes, versus DMSO.
Protocol: (§1) Amyloid accumulation was determined using both neuronal cell conditioned media and 20 nM recombinant labeled Hilyte fluor 488 β-amyloid (1-40) (Anaspec, AS-60491-01) and β-amyloid (1-42) (Anaspec, AS-60479-01) resuspended in PBS. Aβ accumulation for each cell line and experimental permutation was determined from 2D cultures containing all three cells types containing same ratio of cells as 3D experiments. Total area positive for Aβ was divided by the total number of nuclei and normalized to experimental controls. At least four images for each biological replicate were analyzed and for each condition at least three biological replicates were employed. 2D quantifications were corroborated by 3D imaging and analysis.
We then added 20 nM Aβ1-40/42-FITC to the cultures for an additional 48 hours after which we quantified the accumulation of AP-FITC for each condition.
Data set [3] deals with iBBB. The text has this: To more fully assess the barrier properties of the iBBB we compared the paracellular permeability of molecules with molecular weights ranging from 0.1 to 80 kDa. […] To rule out the possibility that the reduced permeability of the iBBB was simply the result of additional layers of cells, we layered on top of BECs double the normal number of pericyte-only, astrocytes-only or a non-relevant cell type, mouse embryonic fibroblasts (MEFs).
The genotype distinction between APOE4/4 cells (isogenic) and APOE3/3 (parental) was assessed in terms of permeability of an iBBB membrane. FIG. 13A presents a schematic showing the iBBB with fluorescent molecules positioned on the Apical surface, which are then allowed to transition through the iBBB from the Apical surface to the Basolateral surface (FIG. 13B).

Data set [4] relates to iBBB. Description: Amyloid (Aβ-FITC) accumulation in iBBB. The data set is classed as cell-based, human. Conditions: APOE3/3 iBBB; APOE raised to approximately 200 ng/ml, E3 or E4; labeled Aβ for 96 hours.
Protocol: as §1

As to `O=C1C=CC(=O)C2=C1C1c3ccccc3C2c2ccccc21` [INCA6], in data set [1] (APOE4/4 pericytes, two weeks, CsA 2 μM, FK506 5 μM, INCA6 5 μM, qRT-PCR), the APOE expression result is “significantly reduced”. For the same compound, the “expression of APOE” value in data set [1] (E3/4 heterozygous pericytes from three individuals) is on record as “significant reduction”. Moreover, the amyloid accumulation entry in data set [2] is “significantly reduced”.
Regarding “Aβ42-FITC: FITC-labeled amyloid-β 1-42 peptide”, the “permeability and accumulation on the Basolateral surface, APOE4/4 iBBB versus parental APOE3/3 iBBB” value in data set [3] is given as “greater permeability”.
Regarding “recombinant human APOE protein: recombinant human APOE protein (E3 or E4) added to iBBB culture media”, the Aβ accumulation result in data set [4] is listed as “increase”.
For the compound “transferrin: fluorescently labeled Transferrin (ThermoFisher T-13342), permeability tracer”, the “permeability and accumulation on the Basolateral surface, APOE4/4 iBBB versus parental APOE3/3 iBBB” value in data set [3] is “greater permeability”.
